Assay results as given in US8304238B2, “Cell culture medium and immobilized preparation of cell adhesion protein or peptide” (Nat'l Institute for Environmental Studies, priority 2003, dated 2012).
Where no end group is shown, it is not given here. [ ]: non-standard residue; d: D form. Nle = CCCC[C@H](N)C(=O)O

Legend:
[1] = test system: alveolar type II epithelial cells (T2 cells); test: Inhibition of T2 cell adhesion to immobilized pseudomatrix by treatment with polyclonal antibodies for the peptides; type: cell-based; settings: for Cell adhesion ability of immobilized pseudomatrix compared with coated FN: MBAC-peptide 1-10 μg/ml in DMEM; for Inhibition of cell adhesion by treatment with antibodies for the peptides: antibodies 4-10 μg/ml, 2-4 hours; for Inhibition of cell adhesion by anti-FIB-1 antibody: immobilized at 1 μg/ml
Description: (§1) Each pseudomatrix prepared in Example 13 to which cell adhesion peptide was bound (MBAC-peptide) was diluted in DMEM medium to the concentration of 1-10 μg/ml, poured into a 96-well by 100 μl each, and left still overnight in a CO2 incubator to be adsorbed and immobilized on the wells. Non-adsorbed MBAC-peptides were removed by rinsing well with DMEM medium. Next, 100 μl of antibodies diluted with serum-free DMEM to the concentration of 4-10 μg/ml was poured into a well, incubated for 2-4 hours to let the antibodies bind to the peptides. Normal IgG was used for control groups. Antibodies were removed after the treatment, T2 cells suspended at the concentration of 6×10^5 cells/ml were seeded by 100 μl each. After 1-day serum-free culture, T2 cells were fixed with 100 μl of methanol for 5 minutes, and stained with 50 μl of 0.4% crystal violet for 30 minutes. Excessive staining was washed with water, and the number of adhering cells was counted based on the absorbance of cytoplasm (A595).

[2] = test system: alveolar type II epithelial cells (T2 cells); test: Inhibition of T2 cell adhesion to immobilized pseudomatrices by heparin treatment; type: cell-based; settings: Nle used instead of Met
Description: Pseudomatrices prepared in Example 13 to which each cell adhesion peptide was bound (MBAC-peptide) was diluted in DMEM medium to the concentration of 1-10 μg/ml, poured into 96-wells by 100 μl each, and left still overnight in a CO2 incubator to be adsorbed and immobilized on the wells. Non-adsorbed MBAC-peptide was removed by rinsing well with DMEM medium. Next, 100 μl of DMEM in which 1 mg/ml of heparin was dissolved was poured into the wells, incubated for 2 hours to allow heparin to bind to the peptides. Control groups were treated with DMEM only. Heparin was removed after the treatment, and T2 cells suspended at the concentration of 6×10^5 cells/ml were seeded by 100 μl each. After 1-day serum-free culture, T2 cells were fixed with 100 μl of methanol for 5 minutes, and stained with 50 μl of 0.4% crystal violet for 30 minutes. Excessive staining was washed with water, and the number of adhering cells was counted based on the absorbance of cytoplasm (A595).

[3] = test system: alveolar type II epithelial cells (T2 cells); test: Adhesion of T2 cells to pseudomatrix adsorbed/immobilized from DMEM and competitive inhibition by free peptides; type: cell-based; settings: for Competitive inhibition of cell adhesion to pseudomatrix by free cell adhesion peptide: pseudomatrix 1-10 μg/ml in DMEM
Description: 200 mg each of hydrophobic binding-adsorptive polymer, MBAC, MAST or MMAC were dispersed into water, and 1 N NaOH solution was added little by little to dissolve them completely. 50 mg of WSC (1-ethyl-3-(3-dimethylamino propyl)carbodiimide, hydrochloride) was added to the resulting solution, and the reaction was conducted for 2 hours. Subsequently, 20 mg of peptide was added, and the reaction was continued with stirring for 2 hours at room temperature. After the reaction was finished, the reactant was subjected to dialysis with water to remove alkaline and low molecules, and then freeze-dried to prepare a pseudomatrix of interest.
as §1, with “μg/ml, and the resultant solution was” for “μg/ml,”, “Next,” for “Next, 100 μl of antibodies diluted with serum-free DMEM to the concentration of 4-10 μg/ml was poured into a well, incubated for 2-4 hours to let the antibodies bind to the peptides. Normal IgG was used for control groups. Antibodies were removed after the treatment,”, “seeded in the serum-free DMEM” for “seeded”
In the same manner as in Example 14, each pseudomatrix prepared in Example 13 to which cell adhesion peptide was bound (MAST-peptide) was adsorbed and immobilized on a 96-well, and T2 cells were seeded and cultured thereon.

[4] = test system: alveolar type II epithelial cells (T2 cells); test: Adhesion of T2 cells to pseudomatrices dissolved in 50% ethanol and air-dried/immobilized, and competitive inhibition by free peptide; type: cell-based; settings: for Adhesion of T2 cells to pseudomatrix compared with coated FN: 50% ethanol, air-dried, 0.1-1.0 μg/well, 24 hours serum-free
Description: 50 μl of 2-20 μg/ml MAST-GRGDSP (Gly-Arg-Gly-Asp-Ser-Pro) (SEQ ID NO: 22) and MMAC-GRGDSP (SEQ ID NO: 22) dissolved in 50% ethanol were poured into wells, and air-dried/immobilized. Next, the wells to which MAST-GRGDSP (SEQ ID NO: 22) and MMAC-GRGDSP (SEQ ID NO: 22) (0.1-1.0 μg/well) were coated were rinsed with the serum-free DMEM medium. T2 cells suspended in the medium at the concentration of 6×10^4 cells/100 μl were seeded, and cultured in a CO2 incubator at 37° C. for 24 hours. Then, the cells were fixed with methanol, stained, and measured its absorbance according to the method in Example 7. A culture wherein FN was coated as a standard material was conducted simultaneously. The cell adhesion on FN was shown as a standard (100%).
In the same manner as in Example 18, MAST-GRGDSP (SEQ ID NO: 22) was dissolved in 50% ethanol, air-dried/immobilized on wells, and T2 cells were seeded/cultured thereon. Separately, just before the cells were seeded, 0.25-4.0 mg/ml of free GRGDSP (SEQ ID NO: 22) peptide was added to the cell suspension, and the culture and the subsequent measurement of absorbance were conducted in the same manner as described above. […] Further, when the applied amount of MAST-GRGDSP (SEQ ID NO: 22) was decreased, the immobilized amount of GRGDSP (SEQ ID NO: 22) decreased, and the competitive inhibition by free GRGDSP (SEQ ID NO: 22) peptide worked more effectively.
(§2) In the same manner as in Example 18, MMAC-GRGDSP (SEQ ID NO: 22) was dissolved in 50% ethanol, air-dried/immobilized on wells, and T2 cells were seeded/cultured thereon. Separately, just before the cells were seeded, 0.25-4.0 mg/ml of free GRGDSP (SEQ ID NO: 22) peptide was added to the cell suspension, and the culture and the subsequent measurement of absorbance were conducted in the same manner as described above.
as §2, with “MBAC/MAST-AG73 and -FIB-1 were” for “MMAC-GRGDSP (SEQ ID NO: 22) was”, “0.25” for “0.25-4.0”, “AG73 or FIB-1” for “GRGDSP (SEQ ID NO: 22)”

[5] = test system: alveolar type II epithelial cells (T2 cells); test: Inhibition of T2 cell adhesion by anti-FIB-1 antibody after MBAC/MAST-FIB-1 in 50% ethanol is air-dried/immobilized; type: cell-based; settings: 4 μg/ml antibody 4 hours; FIB-1 concentration 0.1-0.25 μg/well
Description: In the same manner as in Example 21, MBAC/MAST-FIB-1 was diluted with 50% ethanol, poured into wells, and air-dried/immobilized. Before T2 cells were seeded, 100 μl of 4 μg/ml anti-FIB-1 polyclonal antibody was poured into the well, and incubated for 4 hours to allow the antibody to bind to the immobilized FIB-1 peptide. Controls were treated with normal IgG. T2 cells were cultured, fixed, and stained in the same manner as in Example 21.

[6] = target: adhesion receptor present on the cell surface of T2 cells (not named); test: cell-based or functional assay
[7] = target: syndecan present on the cell surface of T2 cells (alveolar type II epithelial cells); test: T2 cell adhesion to immobilized peptides, competitive inhibition by free peptides (FIGS. 8 and 9)
[8] = target: syndecan present on the cell surface of T2 cells (alveolar type II epithelial cells); test: T2 cell adhesion to FIB-1 and AG73 co-immobilized on MMAC-coated wells, inhibition by free FIB-1 (FIG. 9)
[9] = target: adhesion receptor present on the cell surface of T2 cells (not named); test: T2 cell adhesion to immobilized peptides, competitive inhibition by free peptides (FIGS. 8 and 9)
[10] = target: adhesion receptor present on the cell surface of T2 cells (not named); test: T2 cell adhesion to FIB-1 and the peptide co-immobilized on MMAC-coated wells, inhibition by free FIB-1 (FIG. 9)
[11] = target: integrin on T2 cells (integrin α5β1); test: reference of the ratio; T2 cell adhesion to immobilized peptides (FIGS. 8 and 9)

MBAC-AG81.2X: pseudomatrix: MBAC polymer reacted with AG81.2X peptide (VKTEYIKRKAF[Nle]; also: peptide reacted with MBAC polymer (pseudomatrix))
Cell adhesion ability of immobilized pseudomatrix compared with coated FN [1]: the same level of cell adhesion ability as in the case where FN was coated
Inhibition of cell adhesion by treatment with antibodies for the peptides [1]: specifically inhibited
Cell adhesion ability of Nle pseudomatrix compared with immobilized Met peptide [2]: the same level of cell adhesion ability

MBAC-A4G82X: pseudomatrix: MBAC polymer reacted with A4G82X peptide (TLFLAHGRLVF[Nle]; also: peptide reacted with MBAC polymer (pseudomatrix))
Competitive inhibition of cell adhesion to pseudomatrix by free cell adhesion peptide [3]: inhibited by free A4G82 peptide
Cell adhesion ability of Nle pseudomatrix compared with immobilized Met peptide [2]: the same level of cell adhesion ability

polymer-A5G73X: pseudomatrix: polymer (MBAC in FIG. 14) reacted with A5G73X peptide (RNRLHLS[Nle]LVRP; also: peptide reacted with MBAC polymer (pseudomatrix))
Cell adhesion ability of Nle pseudomatrix compared with immobilized Met peptide [2]: the same level of cell adhesion ability

polymer-AG76.8X: pseudomatrix: polymer (MBAC in FIG. 14) reacted with AG76.8X peptide (TLQLQEGRLHF[Nle]; also: peptide reacted with MBAC polymer (pseudomatrix))
Cell adhesion ability of Nle pseudomatrix compared with immobilized Met peptide [2]: the same level of cell adhesion ability

MAST-FIB-1: pseudomatrix: MAST polymer reacted with FIB-1 peptide (YAVTGRGDSPAS)
Cell adhesion ability of immobilized pseudomatrix compared with directly coated FN ([3]; 1-10 μg/ml in DMEM, 1-day serum-free culture, excluding 1 μg/ml of MBAC-AG73): the same level of cell adhesion ability as in the case where FN was directly coated
Competitive inhibition of cell adhesion to pseudomatrix by free cell adhesion peptide [3]: competitively inhibited by the free cell adhesion peptide, the degree is lower than the case of MBAC-peptide
Inhibition of cell adhesion by anti-FIB-1 antibody [1]: equally inhibited
Degree of inhibition of cell adhesion by the antibody ([1]; immobilized at 2.5-10 μg/ml): low
Competitive inhibition of cell adhesion by free peptide ([4]; 50% ethanol air-dried pseudomatrix, 0.25 mg/ml free AG73 or FIB-1): worked more effectively in accordance with the decrease in the amount of immobilized FIB-1
Adhesion of T2 cells to pseudomatrix compared with coated FN [4]: similarly to the case where FN was coated
Inhibition of cell adhesion by anti-FIB-1 polyclonal antibody [5]: specifically inhibited by the antibody

MBAC-FIB-1: pseudomatrix: MBAC polymer reacted with FIB-1 peptide (YAVTGRGDSPAS)
Competitive inhibition of cell adhesion to pseudomatrix by free cell adhesion peptide [3]: competitively inhibited
Cell adhesion ability of immobilized pseudomatrix compared with coated FN [1]: the same level of cell adhesion ability as in the case where FN was coated
Inhibition of cell adhesion by treatment with antibodies for the peptides [1]: specifically inhibited
Inhibition of cell adhesion by anti-FIB-1 antibody [1]: equally inhibited
Adhesion of T2 cells to pseudomatrix compared with coated FN [4]: similarly to the case where FN was coated
Inhibition of cell adhesion by anti-FIB-1 polyclonal antibody [5]: specifically inhibited by the antibody

B1: GRGDSP (Gly-Arg-Gly-Asp-Ser-Pro) (peptide)
peptide: GRGDSP
competitive inhibition of T2 cell adhesion to immobilized MAST-GRGDSP by free GRGDSP peptide [6]: 4 mg/mL
competitive inhibition of T2 cell adhesion to immobilized MMAC-GRGDSP by free GRGDSP peptide [6]: 1 to 4 mg/mL

B2: AG73 (Arg-Lys-Arg-Leu-Gln-Val-Gln-Leu-Ser-Ile-Arg-Thr) (peptide)
peptide: RKRLQVQLSIRT
Binding strength to T2 cells, Ratio to FIB-1 (fold (ratio to FIB-1)) [7]: 100
mixing ratio at the transitional midpoint (peptide to FIB-1) [8]: 0.01

B3: A5G71 (Gly-Pro-Leu-Pro-Ser-Tyr-Leu-Gln-Phe-Val-Gly-Ile) (peptide)
peptide: GPLPSYLQFVGI
Binding strength to T2 cells, Ratio to FIB-1 (fold (ratio to FIB-1)) [9]: < 1
mixing ratio at the transitional midpoint (peptide to FIB-1) [10]: 1

B4: FIB-1 (Tyr-Ala-Val-Thr-Gly-Arg-Gly-Asp-Ser-Pro-Ala-Ser) (peptide)
peptide: YAVTGRGDSPAS
Binding strength to T2 cells, Ratio to FIB-1 (fold (ratio to FIB-1)) [11]: 1
